This passage reports IC50 results from the Kinase Knowledgebase extract (Sharma et al. 2016).

The test concerns the target PIK3CG (human) (UniProt P48736). The experiment in a line: Assessment of PIK3CG Kinase Activity.

Chain of PIK3CG (human) (P48736 whole entry, looked up): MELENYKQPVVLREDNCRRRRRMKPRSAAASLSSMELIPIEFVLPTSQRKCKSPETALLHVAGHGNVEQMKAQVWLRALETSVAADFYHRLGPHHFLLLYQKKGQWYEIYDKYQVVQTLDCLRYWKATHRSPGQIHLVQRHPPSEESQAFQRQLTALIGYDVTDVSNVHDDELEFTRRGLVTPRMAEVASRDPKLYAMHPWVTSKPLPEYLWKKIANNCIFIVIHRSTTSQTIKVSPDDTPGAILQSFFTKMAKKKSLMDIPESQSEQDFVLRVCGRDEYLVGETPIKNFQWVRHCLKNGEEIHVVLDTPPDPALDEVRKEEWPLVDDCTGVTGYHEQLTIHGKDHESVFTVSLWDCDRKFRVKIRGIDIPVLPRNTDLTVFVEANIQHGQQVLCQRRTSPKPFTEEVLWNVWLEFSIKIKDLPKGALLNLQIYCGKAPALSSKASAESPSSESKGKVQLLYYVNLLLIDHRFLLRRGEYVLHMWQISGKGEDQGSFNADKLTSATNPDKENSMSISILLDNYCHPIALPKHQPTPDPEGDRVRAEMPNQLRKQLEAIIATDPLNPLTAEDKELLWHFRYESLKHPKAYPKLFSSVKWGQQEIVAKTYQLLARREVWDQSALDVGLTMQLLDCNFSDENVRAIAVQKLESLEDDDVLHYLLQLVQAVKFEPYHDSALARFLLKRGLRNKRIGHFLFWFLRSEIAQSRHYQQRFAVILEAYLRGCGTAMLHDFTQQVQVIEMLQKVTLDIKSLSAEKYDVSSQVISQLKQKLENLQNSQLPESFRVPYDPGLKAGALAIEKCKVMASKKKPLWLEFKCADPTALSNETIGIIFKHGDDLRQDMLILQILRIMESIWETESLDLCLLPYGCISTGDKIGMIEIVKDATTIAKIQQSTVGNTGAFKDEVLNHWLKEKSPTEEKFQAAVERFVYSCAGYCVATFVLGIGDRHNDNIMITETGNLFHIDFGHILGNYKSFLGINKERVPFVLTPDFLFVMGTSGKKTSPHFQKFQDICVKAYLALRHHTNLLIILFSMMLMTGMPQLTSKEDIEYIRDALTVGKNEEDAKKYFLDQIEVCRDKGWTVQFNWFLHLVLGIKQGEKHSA

By IC50 is commonly meant the point on the concentration scale where inhibition reaches its midpoint. Read a high IC50 as lower potency. Consider `O=C(NCc1cccc(OC(F)(F)F)c1)Nc1nc2c(s1)-c1c(c(-c3cncnc3)nn1-c1ccccc1Cl)CC2`, for which the IC50 was under 0.8 µM.
Next, `C[C@@H](NC(=O)Nc1nc2c(s1)-c1c(c(-c3ccccc3)nn1-c1ccccc1Cl)CC2)C(=O)N1CCCCC1`: under 0.8 µM; `CCc1csc(CCNC(=O)Nc2nc3c(s2)-c2c(c(-c4cccnc4)nn2-c2ccccc2Cl)CC3)n1`: under 0.8 µM; `CC(C)COC(=O)N1CCC[C@@H]1CNC(=O)Nc1nc2c(s1)-c1c(c(-c3cncnc3)nn1-c1ccccc1Cl)CC2`: under 0.8 µM.
Next, `O=C(NC[C@H]1CCN(C(=O)N2CCCCC2)C1)Nc1nc2c(s1)-c1c(c(-c3cncnc3)nn1-c1ccccc1Cl)CC2`: under 0.8 µM; `CN(C)C(=O)N1CCC[C@@H]1CNC(=O)Nc1nc2c(s1)-c1c(c(-c3cncnc3)nn1-c1ccccc1Cl)CC2`: under 0.8 µM.
Next, `CCc1nnc(CCNC(=O)Nc2nc3c(s2)-c2c(c(-c4cccnc4)nn2-c2ccccc2Cl)CC3)o1`: under 0.8 µM; `CN[C@@H](C)C(=O)N1CC[C@H](CNC(=O)Nc2nc3c(s2)-c2c(c(-c4cncnc4)nn2-c2ccccc2Cl)CC3)C1`: under 0.8 µM; `O=C(NCc1cc(C2CC2)n[nH]1)Nc1nc2c(s1)-c1c(c(-c3cncnc3)nn1-c1ccccc1Cl)CC2`: under 0.8 µM.
For `NC(=O)Nc1nc2c(s1)-c1c(c(-c3cccnc3)nn1-c1ccccc1Cl)CC2`, the 50% inhibitory concentration (IC50) is under 0.8 µM.
Compound `CN1CCN(C(=O)CCCNC(=O)Nc2nc3c(s2)-c2c(c(-c4ccccc4)nn2-c2ccccc2Cl)CC3)CC1` gave an IC50 of under 0.8 µM.
Next, `CCOC(=O)N1CCC[C@@H]1CNC(=O)Nc1nc2c(s1)-c1c(c(-c3cncnc3)nn1-c1ccccc1Cl)CC2`: under 0.8 µM.
Next, `O=C(NCCc1cccnc1)Nc1nc2c(s1)-c1c(c(-c3cccnc3)nn1-c1ccccc1Cl)CC2`: under 0.8 µM.
Next, `CCc1nnc(CCNC(=O)Nc2nc3c(s2)-c2c(c(-c4cncnc4)nn2-c2ccccc2Cl)CC3)o1`: under 0.8 µM; `CCc1cccc(CNC(=O)Nc2nc3c(s2)-c2c(c(-c4cccnc4)nn2C2CCN(C)CC2)CC3)c1`: under 0.8 µM; `O=C(NC[C@H]1CCN(C(=O)N2CCCC2)C1)Nc1nc2c(s1)-c1c(c(-c3ccccc3)nn1-c1cccc(Cl)c1)CC2`: under 0.8 µM.
As for `CC(=O)N(C)c1cccc(CNC(=O)Nc2nc3c(s2)-c2c(c(C4CC4)nn2-c2ccccc2Cl)CC3)c1`, the half-maximal inhibitory concentration (IC50) was under 0.8 µM.
As to `CC(=O)N(C)c1cccc(CNC(=O)Nc2nc3c(s2)-c2c(c(-c4cccnc4)nn2-c2ccccc2Cl)CC3)c1`, the concentration for half-maximal inhibition (IC50) was under 0.8 µM.
`CS(=O)(=O)NCCNC(=O)Nc1nc2c(s1)-c1c(c(-c3ccccc3)nn1-c1ccccc1Cl)CC2` displayed a concentration for half-maximal inhibition (IC50) of under 0.8 µM.
`CCc1cccc(CNC(=O)Nc2nc3c(s2)-c2c(c(-c4cccnc4)nn2-c2ccccc2Cl)CC3)c1` displayed a half-maximal inhibitory concentration (IC50) of under 0.8 µM.
Next, `O=C(Nc1cccc(N2CCNCC2)c1)Nc1nc2c(s1)-c1c(c(-c3cncnc3)nn1-c1ccccc1F)CC2`: under 0.8 µM; `COc1ccc(CCNC(=O)Nc2nc3c(s2)-c2c(c(-c4cncnc4)nn2-c2ccccc2Cl)CC3)cc1OC`: under 0.8 µM.
Compound `CN1CCN(c2ccc(NC(=O)Nc3nc4c(s3)-c3c(c(-c5cncnc5)nn3-c3ccccc3F)CC4)cc2)CC1` showed an IC50 of under 0.8 µM.
Consider `Cn1cc(CCNC(=O)Nc2nc3c(s2)-c2c(c(-c4cccnc4)nn2-c2ccccc2Cl)CC3)cn1`, for which the IC50 is under 0.8 µM.
Next, `O=C(Nc1nc2c(s1)-c1c(c(-c3cncnc3)nn1-c1ccccc1Cl)CC2)N1CCC(NC(=O)C(F)(F)F)C1` (configuration not stated): under 0.8 µM.
With `O=C(NCCc1cccc(N2CCNC2=O)c1)Nc1nc2c(s1)-c1c(c(-c3cncnc3)nn1-c1ccccc1Cl)CC2`, the concentration for half-maximal inhibition (IC50) is under 0.8 µM.
Next, `O=C(NCc1cccc(CN2CCOCC2)n1)Nc1nc2c(s1)-c1c(c(-c3cncnc3)nn1-c1ccccc1Cl)CC2`: under 0.8 µM; `Cc1ccc(CN2CC(CNC(=O)Nc3nc4c(s3)-c3c(c(-c5cccnc5)nn3-c3ccccc3Cl)CC4)CC2=O)cc1` (configuration not stated): under 0.8 µM.
Next, `COc1ccccc1C1CCN(C(=O)Nc2nc3c(s2)-c2c(c(-c4cccnc4)nn2-c2ccccc2Cl)CC3)C1` (configuration not stated): under 0.8 µM; `NC(=O)c1cccc(CNC(=O)Nc2nc3c(s2)-c2c(c(C4CC4)nn2-c2ccccc2Cl)CC3)c1`: under 0.8 µM.
`O=C1CCC(NC(=O)Nc2nc3c(s2)-c2c(c(-c4cccnc4)nn2-c2ccccc2Cl)CC3)C(c2ccccc2)N1` (configuration not stated) registered a half-maximal inhibitory concentration (IC50) of under 0.8 µM.
Next, `O=C(NCCc1ccccn1)Nc1nc2c(s1)-c1c(c(-c3cncnc3)nn1-c1ccccc1Cl)CC2`: under 0.8 µM; `O=C(NCCCN1CCOCC1)Nc1nc2c(s1)-c1c(c(-c3cncnc3)nn1-c1ccccc1F)CC2`: under 0.8 µM; `CN1CCN(C(=O)CCNC(=O)Nc2nc3c(s2)-c2c(c(-c4ccccc4)nn2-c2ccccc2Cl)CC3)CC1`: under 0.8 µM.
For the compound `CCc1csc(CCNC(=O)Nc2nc3c(s2)-c2c(c(-c4cccnc4)nn2C2CCN(C)CC2)CC3)n1`, the IC50 is under 0.8 µM.
Next, `Nc1c(Br)cc(OCC2CCN(C(=O)Nc3nc4c(s3)-c3c(c(-c5cccnc5)nn3-c3ccccc3Cl)CC4)C2)cc1Br` (configuration not stated): under 0.8 µM; `CN1CCC(C(=O)N2CCC[C@@H]2CNC(=O)Nc2nc3c(s2)-c2c(c(-c4cncnc4)nn2-c2ccccc2Cl)CC3)C1` (some centres not stated): under 0.8 µM.
On to `CC(C)CNC(=O)CCNC(=O)Nc1nc2c(s1)-c1c(c(-c3cncnc3)nn1-c1ccccc1Cl)CC2`, for which the concentration for half-maximal inhibition (IC50) was under 0.8 µM.
Next, `Cc1nn(C)cc1CNC(=O)Nc1nc2c(s1)-c1c(c(-c3cccnc3)nn1-c1ccccc1Cl)CC2`: under 0.8 µM; `CC(C)(CNc1ncccn1)NC(=O)Nc1nc2c(s1)-c1c(c(-c3cccnc3)nn1-c1ccccc1Cl)CC2`: under 0.8 µM.
With `CCc1csc(CCNC(=O)Nc2nc3c(s2)-c2c(c(C4CC4)nn2-c2ccccc2Cl)CC3)n1`, the 50% inhibitory concentration (IC50) was under 0.8 µM.
`O=C(NCc1ccccc1-n1cccn1)Nc1nc2c(s1)-c1c(c(-c3cccnc3)nn1-c1ccccc1Cl)CC2` registered a concentration for half-maximal inhibition (IC50) of under 0.8 µM.
Next, `O=C(Nc1nc2c(s1)-c1c(c(-c3cccnc3)nn1-c1ccccc1Cl)CC2)N1CCC2(CC1)C(=O)NCN2c1ccccc1`: under 0.8 µM; `CN1CCN(CCNC(=O)Nc2nc3c(s2)-c2c(c(-c4cncnc4)nn2-c2ccccc2F)CC3)CC1`: under 0.8 µM; `O=C(Nc1nc2c(s1)-c1c(c(-c3cccnc3)nn1-c1ccccc1Cl)CC2)NC1(c2nc3ccc(Cl)cc3[nH]2)CCCCC1`: under 0.8 µM.
The compound `CN(C)CCNC(=O)Nc1nc2c(s1)-c1c(c(-c3cncnc3)nn1-c1ccccc1F)CC2` came in with a concentration for half-maximal inhibition (IC50) of under 0.8 µM.
For `CN1CCC(n2nc(-c3cccnc3)c3c2-c2sc(NC(=O)NCc4cccc(C(N)=O)c4)nc2CC3)CC1`, the half-inhibitory concentration (IC50) is under 0.8 µM.
Next, `O=C(Nc1ccccc1)Nc1nc2c(s1)-c1c(c(-c3cncnc3)nn1-c1ccccc1Cl)CC2`: under 0.8 µM; `CN(C)C(=O)Nc1nc2c(s1)-c1c(c(-c3cncnc3)nn1-c1ccccc1Cl)CC2`: under 0.8 µM.
Next, `CCc1cnc(CCNC(=O)Nc2nc3c(s2)-c2c(c(-c4cncnc4)nn2-c2ccccc2Cl)CC3)o1`: under 0.8 µM; `O=C(Nc1nc2c(s1)-c1c(c(-c3ccccc3)nn1-c1ccccc1Cl)CC2)NC1CCN(S(=O)(=O)c2ccccc2)CC1`: under 0.8 µM; `CC(C)(C)OC(=O)N1CCC[C@@H]1CNC(=O)Nc1nc2c(s1)-c1c(c(-c3cncnc3)nn1-c1ccccc1F)CC2`: under 0.8 µM.
In turn, `CC(C)(C)OC(=O)NC1CCN(C(=O)Nc2nc3c(s2)-c2c(c(-c4cccnc4)nn2-c2ccccc2Cl)CC3)C1` (configuration not stated) returned an IC50 of under 0.8 µM.
As for `CS(=O)(=O)Nc1ccc(NC(=O)Nc2nc3c(s2)-c2c(c(-c4ccccc4)nn2-c2ccccc2Cl)CC3)cc1`, the half-inhibitory concentration (IC50) was under 0.8 µM.
Next, `O=C(NCc1ccc2cc[nH]c2c1)Nc1nc2c(s1)-c1c(c(-c3cccnc3)nn1-c1ccccc1Cl)CC2`: under 0.8 µM; `O=C(NCCN1CCCC1=O)Nc1nc2c(s1)-c1c(c(-c3ccccc3)nn1-c1ccccc1Cl)CC2`: under 0.8 µM; `CCN(CC)CCNC(=O)Nc1nc2c(s1)-c1c(c(-c3cncnc3)nn1-c1ccccc1Cl)CC2`: under 0.8 µM.
Next, `CN(C)C(=O)CNC(=O)Nc1nc2c(s1)-c1c(c(-c3cccnc3)nn1C1CCN(C3CCCC3)CC1)CC2`: under 0.8 µM; `Cc1nc[nH]c1-c1cccc(CNC(=O)Nc2nc3c(s2)-c2c(c(-c4cccnc4)nn2-c2ccccc2Cl)CC3)c1`: under 0.8 µM; `O=C(NCCN1CCOCC1)Nc1nc2c(s1)-c1c(c(-c3cncnc3)nn1-c1ccccc1F)CC2`: under 0.8 µM.
`CN(C)CCNC(=O)Nc1nc2c(s1)-c1c(c(-c3cncnc3)nn1-c1ccccc1Cl)CC2`: the 50% inhibitory concentration (IC50) was under 0.8 µM.
Next, `CNC(=O)Nc1nc2c(s1)-c1c(c(-c3cncnc3)nn1-c1ccccc1Cl)CC2`: under 0.8 µM.
`CC(C)(C)OC(=O)N1CCC[C@@H]1CNC(=O)Nc1nc2c(s1)-c1c(c(-c3ccccc3)nn1-c1ccccc1Cl)CC2` displayed an IC50 of under 0.8 µM.
Next, `O=C(NCCC(=O)N1CCCCC1)Nc1nc2c(s1)-c1c(c(-c3cncnc3)nn1-c1ccccc1Cl)CC2`: under 0.8 µM.
For `CCn1cnc(CCNC(=O)Nc2nc3c(s2)-c2c(c(-c4cccnc4)nn2C2CCN(C4CCCC4)CC2)CC3)c1`, the half-maximal inhibitory concentration (IC50) was under 0.8 µM.
Next, `O=C(NCc1cccc(N2CCNC2=O)c1)Nc1nc2c(s1)-c1c(c(C3CC3)nn1-c1ccccc1Cl)CC2`: under 0.8 µM; `NC(=O)c1ccc(CNC(=O)Nc2nc3c(s2)-c2c(c(-c4cncnc4)nn2-c2ccccc2Cl)CC3)cc1`: under 0.8 µM; `C[C@H](NC(=O)Nc1nc2c(s1)-c1c(c(-c3ccccc3)nn1-c1ccccc1Cl)CC2)C(=O)N1CCOCC1`: under 0.8 µM.
For `O=C(NCCNS(=O)(=O)c1ccccn1)Nc1nc2c(s1)-c1c(c(-c3ccccc3)nn1-c1ccccc1Cl)CC2`, the IC50 is under 0.8 µM.
For `COC(=O)N1CCC[C@@H]1CNC(=O)Nc1nc2c(s1)-c1c(c(-c3cncnc3)nn1-c1ccccc1Cl)CC2`, the IC50 was under 0.8 µM.
Next, `CCc1cnc(CCNC(=O)Nc2nc3c(s2)-c2c(c(C4CC4)nn2-c2ccccc2Cl)CC3)o1`: under 0.8 µM.
Compound `CC(C)OC(=O)N1CCC[C@@H]1CNC(=O)Nc1nc2c(s1)-c1c(c(-c3cncnc3)nn1-c1ccccc1Cl)CC2` showed a half-maximal inhibitory concentration (IC50) of under 0.8 µM.
